Laboratory results from patent US8629242B2, “Methods of inhibiting calcineurin with ApoE analogs” (Cognosci, Inc., priority 2007, dated 2014).

Assays:
calcineurin (PP2B) = molecular target: T1, calcineurin (PP2B) (Homo sapiens, UniProt Q08209); assay: Immunoprecipitation with biotin-COG 133 conjugate, blot probed for calcineurin; format: binding; details: human brain lysate or primary glial culture; biotin-COG 133 bead conjugate
T1 construct: from tissue; host or cells: human brain lysate
Procedure: FIG. 14. ApoE analogs bind directly to calcineurin and inhibit its activity. […] (B) Immunoprecipitation of human brain lysate with a biotin-COG 133 conjugate. Lane 1=markers; lane 2=clear bead; lane 3=biotin-COG 133 bead conjugate; and lane 4=10 μg lysate. (C) Immunoprecipitation of different glial cultures with a biotin-COG 133 conjugate. Lane 1=markers; lane 2=astrocyte; lane 3=microglia; and lane 4=oligodendrocyte precursor cells (OPC). Blots in B and C were probed for calcineurin (PP2B).
Calcineurin activity was measured in a cell-free in vitro assay in the presence of various concentrations of COG 133 (SEQ ID NO: 1), COG 112 (SEQ ID NO: 5), COG 68 (SEQ ID NO: 7), COG 125 (Ac-AS(Aib)LRKL(Aib)KR—COOH; SEQ ID NO: 8), or antennapedia (antp), the prefix peptide for COG 112. […] Using a BioMol Calcineurin Phosphatase Activity Kit (Cat. #AK-804), the assay was conducted according to manufacturer's instructions. […] This inhibition of calcineurin activity by ApoE analogs is mediated by a direct interaction of the ApoE analog with the phosphatase.

peritoneal macrophages = assay: In vitro LPS+IFN-γ challenge of macrophages from COG 133-treated EAE mice; format: cell-based; details: macrophages collected dpi 35 from treated mice, vs saline-treated mice, p<0.001
Procedure: FIG. 4. In vivo exposure to COG 133 suppressed in vitro production of inflammatory effectors by peritoneal macrophages. TNF-α (A) and IL-6 (B) were measured by ELISA, and nitrite in culture medium was measured by a Sievers NO Analyzer (C). Statistical analysis was performed by two-tailed student's t test and significance was shown as ** (p<0.01) and *** (p<0.001).
To examine the effect of COG 133 (SEQ ID NO: 1) treatment on activation of macrophages in EAE mice, macrophages were collected from a subset of saline and COG 133-treated mice on dpi 35 and then challenged in vitro with the immune stimulators lipopolysaccharide and interferon-γ (LPS+IFN-γ). Nitrite in culture medium was measured by a Sievers NO Analyzer and TNF-α and IL-6 were measured by ELISA.

[1] = tested on: NFAT translocation in BV2 cells; assay: LPS-induced NFAT translocation in BV2 cells; format: cell-based, murine; details: 2 μM, LPS 10 ng/mL, 15 min
Source text: FIG. 15. ApoE analog inhibits LPS-induced NFAT translocation. Murine microglial cell line, BV2 cells were stimulated with LPS in the presence or absence of COG 112. NFAT (green signal) and nuclear label (red signal). (A) Untreated cultures; (B) LPS-treated cultures; (C) LPS+COG 112-treated cultures; (D) NFAT translocation was quantified by the fluorescence intensity of green fluorescence in the nucleus defined by yellow area.
Calcineurin dephosphorylates the transcription factor NFAT, which leads to its activation and translocation to the nucleus. Activation of calcineurin and subsequent activation of NFAT is induced by inflammatory stimuli. To further examine the effect of ApoE analogs on calcineurin signaling, murine microglial cell line, BV2 cells were stimulated with LPS (10 ng/mL) in the absence and presence of COG 112 (2 μM). After incubation for 15 min at 37° C., the cells were washed and fixed with 4% formaldehyde. After staining with 1/100 anti-NFAT antibody coupled with Alexaflour and then counterstained with hoescht nuclear dye, NFAT translocation was quantified by the fluorescence intensity of Alexaflour in the nucleus.

[2] = tested on: 175 kdyn contusive spinal cord injury; assay: Contusive spinal cord injury; format: in vivo, Sprague-Dawley rats; details: 1 mg/kg
Procedure: FIG. 12. COG 112 reduces the size of the lesion in white matter after spinal cord injury by inhibition of microglia activation. Rats received 175 kdyn contusive spinal cord injury and subsequent treatment with saline or COG 112 starting immediately after injury for 1 week. The injured area and spared white matter from the injured spinal cord were evaluated and quantified by luxol fast blue (LFB) staining area (top left panel). Activation of microglia was examined by staining adjacent sections with an ED1 antibody (bottom left panel). […] Scale bar=1000 μm. Similar to MS, spinal cord injury (SCI) is another devastating neurological disorder manifested as massive demyelination in the white matter of the spinal cord and extensive microglial activation surrounding the injured site. To examine the therapeutic effect of ApoE analogs on spinal cord injury, COG 112 (SEQ ID NO: 5) was administered to rats immediately after a contusive spinal cord injury. […] The second dose of COG 112 or vehicle was given i.v. 5 hours later followed by daily i.p. doses for 7 days. The animals were sacrificed on day 7 and the spinal cord spanning the injured site was subjected to histological examination. The injured area and spared white matter of the spinal cord were evaluated by Luxol Fast blue (LFB) staining. Activation of microglia was examined by staining adjacent sections with an antibody to ED1. […] Most impressively, about 50% of spared tissue remained at the epicenter of COG 112-treated animals, while only 15% remained in control animals. […] The microglia surrounding the injured spinal cord were robustly activated as shown by ED1-immunoreactivity 7 days after contusion (FIG. 12, bottom panels).

Molecule | binding of calcineurin (PP2B) in immunoprecipitates (calcineurin (PP2B)) | release of IL-6 (peritoneal macrophages) | release of NO (peritoneal macrophages) | release of TNF-α (peritoneal macrophages) | NFAT translocation to the nucleus [1] | ED1 immunoreactive area in the injured spinal cord (microglia activation) ([2]; 7 days after contusion) | spared tissue remaining at the epicenter ([2]; day 7, control animals 15%) | percentage of spared white matter to total spinal cord area ([2]; day 7, epicenter to 2.4 mm rostral or caudal, vs saline)
CC(=O)N[C@@H](CC(C)C)C(=O)N[C@@H](CCCNC(=N)N)C(=O)N[C@H](C(=O)N[C@@H](CCCNC(=N)N)C(=O)N[C@@H](CC(C)C)C(=O)N[C@@H](C)C(=O)N[C@@H](CO)C(=O)N[C@@H](Cc1c[nH]cn1)C(=O)N[C@@H](CC(C)C)C(=O)N[C@@H](CCCNC(=N)N)C(=O)N[C@@H](CCCCN)C(=O)N[C@@H](CC(C)C)C(=O)N[C@@H](CCCNC(=N)N)C(=O)N[C@@H](CCCCN)C(=O)N[C@@H](CCCNC(=N)N)C(=O)N[C@@H](CC(C)C)C(=O)N[C@@H](CC(C)C)C(N)=O)C(C)C [COG 133] | bound | significantly lower response | significantly lower levels of NO | significantly lower response |  |  |  | 
Ac-RQIKIWFQNRRMKWKKCLRVRLASHLRKLRKRLL-NH2 [COG 112] |  |  |  |  | prevented NFAT translocation | dramatically decreased | about 50% | significantly higher
